# Assay results as given in patent US5378475A, “Sustained release drug delivery devices” (priority 1991, dated 1995).
# Experiments:
# [1] = test system: AIDS patients; conditions: human, in vivo; cited from earlier work
# [2] = test system: CMV retinitis; conditions: intravenous; cited from earlier work
# [3] = Device/drug stability after heat treatment (Example 2); assay type: physicochemical
# [4] = test system: rabbit eye; parameters: species or system New Zealand albino rabbits; conditions: in vivo
# Experimental: New Zealand albino rabbits weighing 1.5 to 2 kg were used in this study. Anesthesia was provided with intramuscular ketamine HCl (40 mg/kg), attopine sulfate (0.1 mg/kg), xylazine HCl (10 mg/kg) and topical proparacaine (0.5%).
# A baseline photopic electroretinogram (ERG) was recorded preoperatively in each rabbit using a corneal contact lens. A Gansfeld stimulus was used to improve standardization of results. After sedation, the rabbits were placed inside a Gansfeld stimulator 20 cm away from the flash unit. Flash (cone and rod response) and flicker (cone response) ERGs were done under light adapted conditions. Graphic measurements were recorded, and the waveform amplitudes and implicit times were calculated.
# This was done because the pars plana of the New Zealand albino rabbit is poorly developed and it was therefore necessary to implant the devices and take vitreous samples through retina. The ERG was repeated four weeks later immediately prior to insertion of the device. […]
# Vitreous samples were periodically removed using a 20 gauge needle on a tuberculin syringe. […] After removal, vitreous samples were stored at -60° C until analyzed by HPLC. […]
# Vitreous samples were not collected from the treated eyes. […] In this group, devices were removed from the eyes and the amount of GCV still present determined by HPLC. […]
# [5] = test system: CMV retinitis; conditions: intravitreal injections of 200 to 400 μg once or twice weekly; cited from earlier work
# [6] = test system: rabbit retina; experiment: 6 mg bolus dose of intravitreal GCV: retinal toxicity in rabbit (Example 3); assay type: in vivo, New Zealand albino rabbits; conditions: 6 mg bolus dose intravitreal, two eyes
# [7] = J. Ocular Pharmacol. 1988;1062:231; cited from earlier work
# [8] = Diffusion/release of 5-FU through PVA membranes; assay type: in vitro ADME; conditions: heat treated PVA membrane
# Text: Subconjunctival administration of 5-FU as an adjunct to filtration surgery in high risk glaucoma patients is attended by the necessity of multiple subconjunctival injections and the potentially serious complications due to delayed wound healing. Alternative delivery systems have been proposed including liposomes, topical administration, and sustained release polymers. […] Therefore, the rate of release was further decreased by layering EVA within the PVA to create a membrane system that was 6×8 mm in size.
# [9] = J. Ocular Pharmacol. 1988;1062:231; cited from earlier work; remark: listed apart in the source
structure (smiles),measurement,setting,value
Cc1cn([C@H]2C[C@H](N=[N+]=[N-])[C@@H](CO)O2)c(=O)[nH]c1=O [zidovudine],effect in AIDS patients,[1],prolong life and improve the immune function in AIDS patients
"Nc1nc(O)c2ncn(COC(CO)CO)c2n1 [GCV, ganciclovir]",bone marrow toxicity,[2],bone marrow toxicity limits its usefulness
same,effect on CMV retinitis in AIDS patients,[2],effective in the treatment of CMV retinitis in AIDS patients
same,drug loss or decomposition after heat treatment of ganciclovir pellet,[3]; HPLC analysis,no apparent drug loss or decomposition
same,near IR after heat treatment,[3]; individual component,no change after heat treatment
same,observable retinal toxicity,[4],No observable retinal toxicity
same,effect on CMV retinitis,[5],temporary remission of CMV retinitis in AIDS patients
same,toxicity by indirect ophthalmoscopy,[6],no evidence of toxicity
"O=c1[nH]cc(F)c(=O)[nH]1 [5-FU, 5-fluorouracil]",permeability of EVA to 5-FU,[7],EVA was impermeable to 5-FU
same,effect of heat treating the PVA membrane on 5-FU release rates,[8],release rates could be markedly decreased
same,release of 5-FU through PVA,[9],PVA provided a linear release
